From patent US7258862B2, “Mushroom extracts having anticancer activity” (Gavish-Galilee Bio Aplications Ltd., priority 2004, dated 2007)
Entries after “also recorded” stand apart in the source; their conditions may differ.

Columns and labels:
Type in all cases: cell-based, human
K562 cells [1] = assay: Erythroid differentiation: hemoglobin production in K562 cells
K562 cells [2] = assay: Apostain ELISA assay (DNA condensation, apoptosis) in K562 cells; details: 48 h; for Relative Apostain Value: K562, solvent-treated sample = 1
PARP = PARP cleavage Western blot in K562 cells; details: 500 μg/ml and 250 μg/ml, 48 hours, Western blot (FIGS. 2A-2B)
p210^Bcr-Abl = assay: Western blot of p210 Bcr-Abl expression in K562 cells; details: extracts 500 μg/ml and 250 μg/ml, AG957 10 μM and 20 μM, 48 hours, Western blot (FIGS. 3A-3B)

CCCC(=O)O [Butyric Acid, butyric acid]
Relative Hemoglobin (K562 cells [1]; 1 mM, day 5, K562, solvent-treated sample = 1.0): 9.4 | Induction of hemoglobin production / erythroid differentiation in K562 cells (in words) (K562 cells [1]; day 5 post-treatment, versus DMSO-treated cells): active in inducing hemoglobin expression

COC(=O)c1ccc(NCc2cc(O)ccc2O)cc1 [AG957]
Relative Apostain Value (K562 cells [2]; 10 μM): 6.2 | Relative Apostain Value (K562 cells [2]; 20 μM): 3.9 | Induction of apoptosis / increase in DNA condensation in K562 cells (in words) (K562 cells [2]; extracts 250 and 500 μg/ml, AG957 10 μM): significantly induced an increase in DNA condensation | Cleavage of PARP in K562 cells (in words) (PARP): significantly activates PARP cleavage; also recorded: significant cleavage of PARP | Effect on p210^Bcr-Abl expression levels in K562 cells (in words) (p210^Bcr-Abl): reduction in Bcr-Abl protein levels
